# Test system: Dollar Spot
# Test: Dollar Spot infestation on Bentgrass Green (field application by knapsack sprayer)
# Type: in vivo, Sclerotinia homoeocarpa
# Details: applied at 0, 6, 14 days
# Source text: Example 1 sets forth the Dollar Spot infestation on Bentgrass Green.
# A suspension concentrate composition of Compound I-1 as defined herein with and without the addition of Synergen® KN was applied to Bentgrass Green at 0, 6, and 14 days using a knapsack sprayer. Synergen® KN contains a blend of phosphate and ethoxylated alcohol compounds, such as a blend of poly(oxy-1,2-ethanediyl), α-isotridecyl-ω-hydroxy-, phosphate and ethoxylated C12-C16 alcohols.
# In Table 1, untreated Bentgrass Green (1) was compared to a composition including Compound I-1 at 440 grams/hectacre (“GA/HA”) (2), a composition including Compound I-1 at 440 GA/HA+Synergen® KN at 1% by volume (3), a composition including Compound I-1 at 880 GA/HA (4), a composition including Compound I-1 at 880 GA/HA+Synergen® KN at 1% by volume (5), a composition including Compound I-1 at 1320 GA/HA (6), and composition including a Compound I-1 at 1320 GA/HA+Synergen® KN at 1% by volume (7). As set forth in Table 1, ratings were evaluated at −1, 6, 13, 22, 28, 35, and 48 days.
smiles,measurement,setting,value
"Cn1c(=O)c2sc3c(=O)n(C)c(=O)c3sc2c1=O [Compound I-1, 2,6-dimethyl-1H,5H-[1,4]dithiino[2,3-c:5,6-c′]dipyrrole-1,3,5,7(2H,6H)-tetrone]",Percentage of Dollar Spot,"440 GA/HA, rating Day 6, adjuvant where present 1% by volume",7.5%
same,Percentage of Dollar Spot,"440 GA/HA, rating Day 13, adjuvant where present 1% by volume",10.8%
same,Percentage of Dollar Spot,"440 GA/HA, rating Day 22, adjuvant where present 1% by volume",12.8%
same,Percentage of Dollar Spot,"440 GA/HA, rating Day 28, adjuvant where present 1% by volume",14.5%
same,Percentage of Dollar Spot,"440 GA/HA, rating Day 35, adjuvant where present 1% by volume",19.5%
same,Percentage of Dollar Spot,"440 GA/HA, rating Day 48, adjuvant where present 1% by volume",22.8%
same,Percentage of Dollar Spot,"440 GA/HA, rating Day −1, adjuvant where present 1% by volume",8.3%
same,Percentage of Dollar Spot,"880 GA/HA, rating Day 6, adjuvant where present 1% by volume",7.8%
same,Percentage of Dollar Spot,"880 GA/HA, rating Day 13, adjuvant where present 1% by volume",10.5%
same,Percentage of Dollar Spot,"880 GA/HA, rating Day 22, adjuvant where present 1% by volume",11.3%
same,Percentage of Dollar Spot,"880 GA/HA, rating Day 28, adjuvant where present 1% by volume",12.5%
same,Percentage of Dollar Spot,"880 GA/HA, rating Day 35, adjuvant where present 1% by volume",17%
same,Percentage of Dollar Spot,"880 GA/HA, rating Day 48, adjuvant where present 1% by volume",20.8%
same,Percentage of Dollar Spot,"880 GA/HA, rating Day −1, adjuvant where present 1% by volume",8.3%
same,Percentage of Dollar Spot,"1320 GA/HA, rating Day 6, adjuvant where present 1% by volume",8.3%
same,Percentage of Dollar Spot,"1320 GA/HA, rating Day 13, adjuvant where present 1% by volume",10.5%
same,Percentage of Dollar Spot,"1320 GA/HA, rating Day 22, adjuvant where present 1% by volume",12.8%
same,Percentage of Dollar Spot,"1320 GA/HA, rating Day 28, adjuvant where present 1% by volume",14.8%
same,Percentage of Dollar Spot,"1320 GA/HA, rating Day 35, adjuvant where present 1% by volume",17%
same,Percentage of Dollar Spot,"1320 GA/HA, rating Day 48, adjuvant where present 1% by volume",20%
same,Percentage of Dollar Spot,"1320 GA/HA, rating Day −1, adjuvant where present 1% by volume",9%

# Reference: patent US20130324582A1, “METHODS AND COMPOSITIONS FOR REDUCING FUNGAL INFESTATION AND IMPROVING GRASS QUALITY” (BAYER CROPSCIENCE LP, priority 2012, published 2013)
